Values after ≈ are worked out from the molar mass of the structure shown. Like-named read-outs stand apart in the source and are kept apart here. Bridge positions count the residues as written; N and C are the ends. Square brackets hold non-standard residues; d marks the D form. Peptide text beside a SMILES is read from it. S5 = C=CCCC[C@](C)(N)C(=O)O
How the values were obtained:
Staphylococcus aureus [1] = assay: Agar diffusion test (modified Kirby-Bauer), zone of inhibition; format: cell-based; conditions: 30 μl per well, sAMP1 100 μg/ml, Kanamycin 50 μg/ml, 24 hours
Source text: (§1) The agar diffusion method was used to examine the synthesized AMP's antibacterial activity. Pure colonies of Staphylococcus aureus and MRSA were used for antibacterial susceptibility testing according to Clinical Laboratory Standards Institute (CLSI) 2021 guideline) by using a modified Kirby-Bauer disk diffusion technique (Humphries, R. et al, “Overview of Changes to the Clinical and Laboratory Standards Institute Performance Standards for Antimicrobial Susceptibility Testing”, M100, 31st Edition, J. Clin. Microbiol. 2021 Nov. 18; 59 (12): e0021321). In brief, homogeneous colonies were chosen from each microbial strain and grown on Mullar Hilton broth at log phase. 0.5 McFarland standard culture was used to spread on to the Mullar Hilton agar plates. Freshly prepared (30 μl each) of Kanamycin 50 μg/ml and sAMP1 100 μg/ml was poured into 4 mm diameter well, blank well with an equivalent amount of saline served as a […] control. The plates were incubated for 24 hours, and the diameter of the inhibition zone was measured to determine susceptibility or resistance. The full analysis was carried out three times.

MRSA [2] = assay: as above; format: cell-based, Staphylococcus aureus; conditions: 30 μl per well, sAMP1 100 μg/ml, Kanamycin 50 μg/ml, 24 hours
Source text: as §1

Staphylococcus aureus [3] = assay: microbe, parasite or virus in culture
MRSA [4] = assay: microbe, parasite or virus in culture; conditions: Staphylococcus aureus
MRSA [5] = test system: MRSA
[6] = test system: MCF-7 breast cancer cells
Method: Cytotoxicity & MTT Testing
(§2) Cell line MCF-7 and A549 cells were cultured under CO2 (5%) at 37° C. using Dulbecco's Modified Eagle's Medium (DMEM), accompanied with 1% mixture of “Penicillin-Streptomycin”, 10% Fetal Bovine Serum (FBS) and 1% L-Glutamine.

Method for A549 lung cancer cells: Cytotoxicity & MTT Testing
as §2

Row | SMILES | zone of inhibition at 50 µg/mL (Staphylococcus aureus [1]; read-out: Zone of Inhibition (mm), Mean ± SD, n = 3) | zone of inhibition at 50 µg/mL (MRSA [2]; Staphylococcus aureus, read-out: Zone of Inhibition (mm), Mean ± SD, n = 3) | MIC (Staphylococcus aureus [3]) | MIC (MRSA [4]) | Zone of Inhibition (mm), Mean ± SD, n = 3 (Staphylococcus aureus [1]) | Zone of Inhibition (mm), Mean ± SD, n = 3 (MRSA [2]) | MIC 96-well plate result (growth), replicates 1-3 (MRSA [5]; sAMP1 1.5625 μg/ml (row G)) | MIC 96-well plate result (growth), replicates 1-3 (MRSA [5]; sAMP1 3.125 μg/ml (row F)) | MIC 96-well plate result (growth), replicates 1-3 (MRSA [5]; sAMP1 6.25 μg/ml (row E)) | MIC 96-well plate result (growth), replicates 1-3 (MRSA [5]; sAMP1 12.5 μg/ml (row D)) | IC50 cell proliferation (MTT) ([6]; 24 h) | anti-cell proliferation (MTT assay) ([6]; MCF-7 cells) | effect on proliferation ([6]; MCF-7 cells, 25 μg/ml) | IC50 cell proliferation (MTT) (A549 lung cancer cells; 24 h) | anti-cell proliferation (MTT assay) (A549 lung cancer cells; A549 cells) | effect on proliferation (A549 lung cancer cells; A549 cells, 25 μg/ml)
1 | NC[C@H]1O[C@H](O[C@H]2[C@H](O)[C@@H](O[C@H]3O[C@H](CO)[C@@H](O)[C@H](N)[C@H]3O)[C@H](N)C[C@@H]2N)[C@H](O)[C@@H](O)[C@@H]1O [Kanamycin, reference compound] | 19.1 ± 1.38 mm | 21.6 ± 2.17 mm | 3.12 µg/mL (≈ 6.45 µM) | 3.12 µg/mL (≈ 6.45 µM) |  |  |  |  |  |  |  |  |  |  |  | 
2 | CC[C@H](C)[C@H](NC(=O)[C@H](CCCNC(=N)N)NC(=O)[C@H](CCCCN)NC(=O)[C@]1(C)CCCC=CCCC[C@](C)(NC(=O)[C@H](CCCCN)NC(=O)[C@H](CCC(=O)O)NC(=O)[C@H](CCCCN)NC(=O)[C@H](CO)NC(=O)[C@H](CCCCN)NC(=O)[C@H](CCCNC(=N)N)NC(=O)[C@H](Cc2ccccc2)NC(=O)[C@@H](N)Cc2ccccc2)C(=O)NCC(=O)N[C@@H](CCCCN)C(=O)N[C@@H](CCC(=O)O)C(=O)N1)C(=O)N[C@H](C(N)=O)C(C)C [sAMP1, FFRKSKEK-S5-GKE-S5-KRIV] (H-FFRKSKEK[S5]GKE[S5]KRIV-NH2; staple 9-13; N-terminus assumed) |  |  |  |  | 22.52±2.15 mm | 25.31±1.53 mm | Growth | Growth | Growth | Growth | 35.82 µg/mL (≈ 16.8 µM) | dose-dependent anti-cell proliferation | significantly reduced the proliferation | 54.22 µg/mL (≈ 25.5 µM) | dose-dependent anti-cell proliferation | significantly reduced the proliferation

Source: patent US12187814B1, “Stapled antimicrobial peptide” (KING SAUD UNIVERSITY, priority 2024, dated 2025)
